From patent US10738028B2, “Spiro three-membered ring, spiro five-membered ring peptide deformylase inhibitor and use thereof in antibacteria and anti-tumor” (priority 2016, dated 2020)

Experiments:
Type in all cases: cell-based
[1] = tested on: Enterococcus faecalis (EFA); experiment: MIC, two-fold agar dilution (CLSI), clinical isolates
Procedure, shortened: (§1)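 Following the American Clinical and Laboratory Standards Institute procedure, agar two-fold dilution served to determine minimum inhibitory concentrations.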

[2] = tested on: Enterococcus faecium (EFM); experiment: as above
Procedure, shortened: as §1

[3] = tested on: Escherichia coli (including ESBLs, non-ESBLs); experiment: as above
Procedure, shortened: as §1

[4] = tested on: Moraxella catarrhalis (BCA); experiment: as above
Procedure, shortened: as §1

[5] = tested on: Streptococcus pneoumoniae (SPN); experiment: as above
Procedure, shortened: as §1

[6] = tested on: methicillin-resistant Staphylococcus aureus (MRSA); experiment: as above
Procedure, shortened: as §1

[7] = tested on: methicillin-resistant Staphylococcus epidermidis (MRSE); experiment: as above
Procedure, shortened: as §1

[8] = tested on: methicillin-sensitive Staphylococcus aureus (MSSA); experiment: as above
Procedure, shortened: as §1

[9] = tested on: methicillin-sensitive Staphylococcus epidermidis (MSSE); experiment: as above
Procedure, shortened: as §1

[10] = tested on: HCT-116 colorectal cancer cell line; experiment: CCK-8 proliferation inhibition; settings: Homo sapiens, HCT-116, 72 h, concentration of 30 μM; 72 hours; CCK-8; read-out: HCT116 inhibition rate/%
Procedure, shortened: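 Cells seeded at 2000 cells/well, cultured overnight at 37 °C, 5% CO2, then exposed to compound (DMSO; control 1‰ DMSO) for 72 h in McCoy's 5A with 10% newborn bovine serum. Viability read with 1:10 diluted CCK-8.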

For `CCCC[C@H](CC(=O)NO)C(=O)N1CC2(CC2)C[C@H]1C(=O)Nc1ncc(C)s1` [Example 47, (S)-5-((R)-2-(2-(hydroxyamino)-2-oxoethyl)hexanoyl)-N-(5-methylthiazol-2-yl)-5-azaspiro[2.4]heptane-6-amide], the Anti-bacterial activity (MIC), strain EFA 15-1 ([1]; clinical isolate EFA 15-1) was greater than 32 µg/mL, the Anti-bacterial activity (MIC), strain EFA 15-2 ([1]; clinical isolate EFA 15-2) was greater than 32 µg/mL and the Anti-bacterial activity (MIC), strain EFA 15-3 ([1]; clinical isolate EFA 15-3) was greater than 32 µg/mL. The Anti-bacterial activity (MIC), strain EFA 15-4 ([1]; clinical isolate EFA 15-4) was greater than 32 µg/mL, the Anti-bacterial activity (MIC), strain EFA 15-5 ([1]; clinical isolate EFA 15-5) was greater than 32 µg/mL and the Anti-bacterial activity (MIC), strain EFA 15-6 ([1]; clinical isolate EFA 15-6) was greater than 32 µg/mL. It also gave an Anti-bacterial activity (MIC), strain EFA 15-9 ([1]; clinical isolate EFA 15-9) of 4 µg/mL, an Anti-bacterial activity (MIC), strain EFM 15-1 ([2]; clinical isolate EFM 15-1) greater than 32 µg/mL and an Anti-bacterial activity (MIC), strain EFM 15-2 ([2]; clinical isolate EFM 15-2) greater than 32 µg/mL. For the same molecule, the Anti-bacterial activity (MIC), strain EFM 15-3 ([2]; clinical isolate EFM 15-3) was greater than 32 µg/mL, the Anti-bacterial activity (MIC), strain EFM 15-4 ([2]; clinical isolate EFM 15-4) was greater than 32 µg/mL and the Anti-bacterial activity (MIC), strain EFM 15-5 ([2]; clinical isolate EFM 15-5) was 0.25 µg/mL. It also gave an Anti-bacterial activity (MIC), strain EFM 15-6 ([2]; clinical isolate EFM 15-6) of 1 µg/mL, an Anti-bacterial activity (MIC), strain ECO+ 15-1 ([3]; clinical isolate ECO+ 15-1) of 32 µg/mL and an Anti-bacterial activity (MIC), strain ECO+ 15-2 ([3]; clinical isolate ECO+ 15-2) greater than 32 µg/mL. For the same molecule, the Anti-bacterial activity (MIC), strain ECO+ 15-3 ([3]; clinical isolate ECO+ 15-3) was greater than 32 µg/mL, the Anti-bacterial activity (MIC), strain ECO+ 15-4 ([3]; clinical isolate ECO+ 15-4) was 0.5 µg/mL and the Anti-bacterial activity (MIC), strain ECO− 15-1 ([3]; clinical isolate ECO− 15-1) was greater than 32 µg/mL. It also gave an Anti-bacterial activity (MIC), strain ECO− 15-2 ([3]; clinical isolate ECO− 15-2) greater than 32 µg/mL, an Anti-bacterial activity (MIC), strain ECO− 15-3 ([3]; clinical isolate ECO− 15-3) greater than 32 µg/mL and an Anti-bacterial activity (MIC), strain ECO− 15-4 ([3]; clinical isolate ECO− 15-4) greater than 32 µg/mL. It also gave an Anti-bacterial activity (MIC), strain BCA 14-1 ([4]; clinical isolate BCA 14-1) of 4 µg/mL, an Anti-bacterial activity (MIC), strain BCA 14-4 ([4]; clinical isolate BCA 14-4) of 4 µg/mL and an Anti-bacterial activity (MIC), strain BCA 14-5 ([4]; clinical isolate BCA 14-5) of 0.25 µg/mL. For the same molecule, the Anti-bacterial activity (MIC), strain BCA 14-6 ([4]; clinical isolate BCA 14-6) was 2 µg/mL, the Anti-bacterial activity (MIC), strain BCA 14-7 ([4]; clinical isolate BCA 14-7) was 2 µg/mL and the Anti-bacterial activity (MIC), strain BCA 14-8 ([4]; clinical isolate BCA 14-8) was 1 µg/mL. It also gave an Anti-bacterial activity (MIC), strain BCA 14-10 ([4]; clinical isolate BCA 14-10) of 0.5 µg/mL, an Anti-bacterial activity (MIC), strain SPN 16-2 ([5]; clinical isolate SPN 16-2) of 0.5 µg/mL and an Anti-bacterial activity (MIC), strain SPN 16-4 ([5]; clinical isolate SPN 16-4) of 0.5 µg/mL. For the same molecule, the Anti-bacterial activity (MIC), strain MRSA 15-1 ([6]; clinical isolate MRSA 15-1) was 0.25 µg/mL, the Anti-bacterial activity (MIC), strain MRSA 15-2 ([6]; clinical isolate MRSA 15-2) was 0.5 µg/mL and the Anti-bacterial activity (MIC), strain MRSA 15-3 ([6]; clinical isolate MRSA 15-3) was 0.25 µg/mL. The Anti-bacterial activity (MIC), strain MRSA 15-4 ([6]; clinical isolate MRSA 15-4) was 0.5 µg/mL, the Anti-bacterial activity (MIC), strain MRSE 15-1 ([7]; clinical isolate MRSE 15-1) was 0.5 µg/mL and the Anti-bacterial activity (MIC), strain MRSE 15-2 ([7]; clinical isolate MRSE 15-2) was 0.5 µg/mL. The Anti-bacterial activity (MIC), strain MRSE 15-3 ([7]; clinical isolate MRSE 15-3) was 0.5 µg/mL, the Anti-bacterial activity (MIC), strain MRSE 15-7 ([7]; clinical isolate MRSE 15-7) was 0.5 µg/mL and the Anti-bacterial activity (MIC), strain MSSA 15-3 ([8]; clinical isolate MSSA 15-3) was 0.5 µg/mL. For the same molecule, the Anti-bacterial activity (MIC), strain MSSA 15-4 ([8]; clinical isolate MSSA 15-4) was 0.5 µg/mL, the Anti-bacterial activity (MIC), strain MSSA 15-5 ([8]; clinical isolate MSSA 15-5) was 0.5 µg/mL and the Anti-bacterial activity (MIC), strain MSSA 15-6 ([8]; clinical isolate MSSA 15-6) was greater than 32 µg/mL. It also gave an Anti-bacterial activity (MIC), strain MSSE 15-3 ([9]; clinical isolate MSSE 15-3) of 0.5 µg/mL, an Anti-bacterial activity (MIC), strain MSSE 15-4 ([9]; clinical isolate MSSE 15-4) of 0.5 µg/mL and an Anti-bacterial activity (MIC), strain MSSE 15-5 ([9]; clinical isolate MSSE 15-5) of 0.5 µg/mL. For the same molecule, the Anti-bacterial activity (MIC), strain MSSE 15-6 ([9]; clinical isolate MSSE 15-6) was 0.5 µg/mL and the inhibition at 30 µM [10] was 20%.
